Each structure is given as a SMILES string.

The nature of the data set: Human HepG2 cell viability assay in 384 well format. Type of data set: toxicity, cell-based. Also noted: dose 125 nL, time 70.5 hour; cytotoxicity at 70.5 h: concentration not given beside the values. Conditions: HepG2 cells, read-out: Inhibition.
`COCCNC(=O)NCCc1ccn(-c2ccccc2)n1`: the cytotoxicity at 70.5 h was -10.9%.
The result for `COCCCn1cnnc1C(C)NC(=O)c1[nH]c2ccc(C)cc2c1C` (centres undefined) reads -4.22%.
For `CC(=O)OCC1CCCCN1C(=O)c1ccc(Cn2ccnc2)o1` (centres undefined), the cytotoxicity at 70.5 h stood at 22.8%.
Regarding `O=C(CCc1nnc(-c2ccccc2)o1)N1CCCC1c1ccc[nH]1` (centres undefined), the cytotoxicity at 70.5 h was -3.43%.
The result for `CCN(Cc1ccc2cccc(O)c2n1)CC1CCCO1` (centres undefined) reads 12.5%; that for `O=S(=O)(c1cn[nH]c1)N1CCCC(O)(CN2CCOCC2)CC1` (centres undefined), -3.34%; that for `CCc1[nH]c2c(CNc3cncc(C(=O)OC)n3)cc(C)cc2c1C`, 20.4%.
`Cc1cc(C)cc(C(=O)NCc2ncnn2C)c1`: the cytotoxicity at 70.5 h is -5.75%.
Consider `O=C([C@@H]1Cc2[nH]cnc2CN1C(=O)NC1CCCCC1)N1CCCC1`, for which the cytotoxicity at 70.5 h was -7.01%.
Then `CCc1nc(C2CCCN2C(=O)Cc2cccs2)no1` (centres undefined), with -8.42%.
In the case of `O=C1CC(c2ccccc2)c2sc(C(=O)O)c(-c3ccccc3)c2N1` (centres undefined), the cytotoxicity at 70.5 h is -8.23%.
Regarding `CCCn1ccnc1SCCNS(=O)(=O)c1ccccc1`, the cytotoxicity at 70.5 h was -1.16%.
The result for `O=C(CSc1ccccn1)N1CCC(OCc2cccnc2)CC1` reads -18.6%; that for `CC(=O)N1CCCC(c2ccnc(Nc3cnccn3)c2)C1` (centres undefined), -1.19%.
With `Cc1cccc(NC(=O)[C@@H]2CCCN2CC(=O)N2CCCCCC2)n1`, the cytotoxicity at 70.5 h was -4.62%.
Turning to `Cc1cnn(CC2CCCN2C(=O)c2cccc3c2OCO3)c1` (centres undefined), the cytotoxicity at 70.5 h was -5.23%.
The result for `CC(C)Cc1ccc(S(=O)(=O)NCCCN2CCNC(=O)C2)cc1` reads -3.66%.
As for `O=S(=O)(CCCNCCn1cccn1)c1ccccc1`, the cytotoxicity at 70.5 h is -14.5%.
Then `O=C(C1CCOCC1)N1C[C@@H](F)[C@@H](OCc2nc3cc(F)ccc3[nH]2)C1`, with -2.48%; and `CCCC(=O)N1CCC(O)(Cn2c(CC)nc3ccccc3c2=O)CC1`, with -16.7%; and `Cc1nc(C)n(C2CCCN(C(=O)COc3cccc(C#N)c3)C2)n1` (centres undefined), with -20.2%.
The result for `Cc1cnn(CC2CCCN2CC(=O)N(C)Cc2ccc(C)o2)c1` (centres undefined) reads -7.64%; that for `Cn1ncc2c1C(COCC1CC1)CN(S(C)(=O)=O)C2` (centres undefined), -9.85%.
The result for `O=S1(=O)c2cccnc2OC(COc2ccccc2)CN1CC1CC1` (centres undefined) reads -2.28%.
With `Cc1cccc(C(=O)NCc2ccc(OCCN(C)C)cc2)c1C`, the cytotoxicity at 70.5 h was -6.51%.
Then `Cc1cnc(C)c(N2CCCC(CC3CC3)(C(=O)O)C2)n1` (centres undefined), with -4.19%; and `N[C@H]1CN(C(=O)c2ccccc2Oc2ccccc2)C[C@@H]1C1CC1`, with -9.43%.
With `Cc1n[nH]c(C)c1CCNC(=O)Nc1ccc(S(C)(=O)=O)cc1`, the cytotoxicity at 70.5 h is -20%.
Then `O=C(Oc1ccccc1)N1CCC(CNS(=O)(=O)c2cccnc2)CC1`, with 20.9%.
Then `Cc1cc(NC(=O)c2ccccc2Br)n(C)n1`, with 2.28%.
For the compound `CCCNCc1ccc(OCc2ccc3c(c2)OCCO3)cc1`, the cytotoxicity at 70.5 h turned out to be 33.3%.
Then `CN1CCN([C@@H]2CCN(C3CCOCC3)[C@H]2Cc2cnn(C)c2)CC1`, with -6.56%; and `CN(Cc1c(F)cccc1Cl)C(=O)c1cnn(CCN2CCOCC2)c1`, with -12.6%.
As to `Cn1c2c(c(=O)n1C)CN(C(=O)c1ccsc1)CCC2`, the cytotoxicity at 70.5 h was -0.418%.
Then `O=C1CCC2(CCCN(C(=O)c3cccnc3)CC2)N1` (centres undefined), with -3.4%.
As for `COc1ccccc1-c1cc(C(=O)N(C)C)c2cnn(C)c2n1`, the cytotoxicity at 70.5 h is -11.2%.
Then `COc1ccc(CN(C)C(=O)NC(C)c2nncn2C)cc1F` (centres undefined), with -6.21%.
The result for `CN(C)C(=O)Cc1nc(CN2CCCC2Cn2cccn2)cs1` (centres undefined) reads -6.16%; that for `CCc1ccc(OCC(=O)N2CCN(CC)CC2)cc1`, -6.61%.
